Measured values from PubChem BioAssay AID1919017 (Molecular Pharmacology Branch, DTP, NCI, 2023).
pIC50: −log10 of the molar value.

Tested on: SW1271 complex spheroids with HUVEC/MSC, growth, % test/control
Assay: Anticancer human tumor SW1271 cell line growth inhibition [AhR];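 note: spheroids exposed to agents for 7 days before readout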
Details: for pIC50: curve of first compound; for viability, T/C: stronger effect = lower value
In short: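 Spheroids combined tumor cells with HUVEC endothelial cells and human MSCs as stroma. AhR antagonists were paired with standard or investigational drugs, each dosed in half-log steps down from near clinical Cmax, or from 10 microM where Cmax was unknown.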

[1] = second compound 0.1 µM, first compound 0.0316 µM
[2] = second compound 0.1 µM, first compound 0.1 µM
[3] = second compound 0.1 µM, first compound 0.316 µM
[4] = second compound 0.1 µM, first compound 1 µM
[5] = second compound 0.316 µM, first compound 0.0316 µM
[6] = second compound 0.316 µM, first compound 0.1 µM
[7] = second compound 0.316 µM, first compound 0.316 µM
[8] = second compound 0.316 µM, first compound 1 µM
[9] = second compound 1 µM, first compound 0.0316 µM
[10] = second compound 1 µM, first compound 0.1 µM
[11] = second compound 1 µM, first compound 0.316 µM
[12] = second compound 1 µM, first compound 1 µM
[13] = second compound 3.16 µM, first compound 0.0316 µM
[14] = second compound 3.16 µM, first compound 0.1 µM
[15] = second compound 3.16 µM, first compound 0.316 µM
[16] = second compound 3.16 µM, first compound 1 µM
[17] = second compound 10 µM, first compound 0.0316 µM
[18] = second compound 10 µM, first compound 0.1 µM
[19] = second compound 10 µM, first compound 0.316 µM
[20] = second compound 10 µM, first compound 1 µM
[21] = second compound 0.1 µM, first compound 3.16 µM
[22] = second compound 0.1 µM, first compound 10 µM
[23] = second compound 0.316 µM, first compound 3.16 µM
[24] = second compound 0.316 µM, first compound 10 µM
[25] = second compound 1 µM, first compound 3.16 µM
[26] = second compound 1 µM, first compound 10 µM
[27] = second compound 3.16 µM, first compound 3.16 µM
[28] = second compound 3.16 µM, first compound 10 µM
[29] = second compound 10 µM, first compound 3.16 µM
[30] = second compound 10 µM, first compound 10 µM
[31] = second compound 0.1 µM, first compound 0.00949 µM
[32] = second compound 0.1 µM, first compound 0.03 µM
[33] = second compound 0.1 µM, first compound 0.0949 µM
[34] = second compound 0.1 µM, first compound 0.3 µM
[35] = second compound 0.316 µM, first compound 0.00949 µM
[36] = second compound 0.316 µM, first compound 0.03 µM
[37] = second compound 0.316 µM, first compound 0.0949 µM
[38] = second compound 0.316 µM, first compound 0.3 µM
[39] = second compound 1 µM, first compound 0.00949 µM
[40] = second compound 1 µM, first compound 0.03 µM
[41] = second compound 1 µM, first compound 0.0949 µM
[42] = second compound 1 µM, first compound 0.3 µM
[43] = second compound 3.16 µM, first compound 0.00949 µM
[44] = second compound 3.16 µM, first compound 0.03 µM
[45] = second compound 3.16 µM, first compound 0.0949 µM
[46] = second compound 3.16 µM, first compound 0.3 µM
[47] = second compound 10 µM, first compound 0.00949 µM
[48] = second compound 10 µM, first compound 0.03 µM
[49] = second compound 10 µM, first compound 0.0949 µM
[50] = second compound 10 µM, first compound 0.3 µM

SMILES: CC1COCCN1c1cc(-c2ccnn2C)c2ccnc(-c3ccn[nH]3)c2n1 (stereo not given) + Cc1ccccc1N=Nc1ccc(NC(=O)c2ccnn2C)c(C)c1
- pIC50 (second compound 0.1 µM): 6.17
- pIC50 (second compound 0.316 µM): < 6.00
- pIC50 (second compound 1 µM): < 6.00
- pIC50 (second compound 3.16 µM): < 6.00
- pIC50 (second compound 10 µM): < 6.00
- viability, T/C (second compound 0.1 µM, first compound 0.00316 µM): 98.9%
- viability, T/C (second compound 0.1 µM, first compound 0.01 µM): 97.4%
- viability, T/C [1]: 88.5%
- viability, T/C [2]: 72.7%
- viability, T/C [3]: 61.6%
- viability, T/C [4]: 44.6%
- viability, T/C (second compound 0.316 µM, first compound 0.00316 µM): 102%
- viability, T/C (second compound 0.316 µM, first compound 0.01 µM): 126%
- viability, T/C [5]: 92.7%
- viability, T/C [6]: 81.2%
- viability, T/C [7]: 74.8%
- viability, T/C [8]: 49.2%
- viability, T/C (second compound 1 µM, first compound 0.00316 µM): 112%
- viability, T/C (second compound 1 µM, first compound 0.01 µM): 96.9%
- viability, T/C [9]: 106%
- viability, T/C [10]: 83.6%
- viability, T/C [11]: 85.3%
- viability, T/C [12]: 49.6%
- viability, T/C (second compound 3.16 µM, first compound 0.00316 µM): 100%
- viability, T/C (second compound 3.16 µM, first compound 0.01 µM): 102%
- viability, T/C [13]: 85.8%
- viability, T/C [14]: 57%
- viability, T/C [15]: 63.5%
- viability, T/C [16]: 63%
- viability, T/C (second compound 10 µM, first compound 0.00316 µM): 93.3%
- viability, T/C (second compound 10 µM, first compound 0.01 µM): 95%
- viability, T/C [17]: 99.9%
- viability, T/C [18]: 72.3%
- viability, T/C [19]: 55.1%
- viability, T/C [20]: 58.2%

SMILES: CC1COCCN1c1cc(C2(S(C)(=N)=O)CC2)nc(-c2ccnc3[nH]ccc23)n1 (stereo not given) + Cc1ccccc1N=Nc1ccc(NC(=O)c2ccnn2C)c(C)c1
- pIC50 (second compound 0.1 µM): < 5.00
- pIC50 (second compound 0.316 µM): < 5.00
- pIC50 (second compound 1 µM): < 5.00
- pIC50 (second compound 3.16 µM): < 5.00
- pIC50 (second compound 10 µM): < 5.00
- viability, T/C [1]: 87.6%
- viability, T/C [2]: 105%
- viability, T/C [3]: 90.8%
- viability, T/C [4]: 119%
- viability, T/C [21]: 89.4%
- viability, T/C [22]: 52.5%
- viability, T/C [5]: 100%
- viability, T/C [6]: 95.2%
- viability, T/C [7]: 96.9%
- viability, T/C [8]: 106%
- viability, T/C [23]: 67.6%
- viability, T/C [24]: 58.8%
- viability, T/C [9]: 96.8%
- viability, T/C [10]: 111%
- viability, T/C [11]: 106%
- viability, T/C [12]: 89.6%
- viability, T/C [25]: 90.4%
- viability, T/C [26]: 56.7%
- viability, T/C [13]: 97.5%
- viability, T/C [14]: 112%
- viability, T/C [15]: 104%
- viability, T/C [16]: 96.7%
- viability, T/C [27]: 70%
- viability, T/C [28]: 61.1%
- viability, T/C [17]: 102%
- viability, T/C [18]: 91.8%
- viability, T/C [19]: 104%
- viability, T/C [20]: 95.4%
- viability, T/C [29]: 68.1%
- viability, T/C [30]: 54.9%

SMILES: COc1ccc([C@@H](O)c2cc(-c3ncnc4cc(N5CCOCC5)ccc34)c(F)cc2Cl)nn1 + Cc1ccccc1N=Nc1ccc(NC(=O)c2ccnn2C)c(C)c1
- pIC50 (second compound 0.1 µM): 5.65
- pIC50 (second compound 0.316 µM): 5.59
- pIC50 (second compound 1 µM): 5.30
- pIC50 (second compound 3.16 µM): 5.32
- pIC50 (second compound 10 µM): 5.70
- viability, T/C [1]: 97.2%
- viability, T/C [2]: 98.1%
- viability, T/C [3]: 87.2%
- viability, T/C [4]: 58.6%
- viability, T/C [21]: 50%
- viability, T/C [22]: 33.9%
- viability, T/C [5]: 82.9%
- viability, T/C [6]: 94.2%
- viability, T/C [7]: 77.6%
- viability, T/C [8]: 65%
- viability, T/C [23]: 47.6%
- viability, T/C [24]: 33.5%
- viability, T/C [9]: 94.6%
- viability, T/C [10]: 89%
- viability, T/C [11]: 86.2%
- viability, T/C [12]: 68.1%
- viability, T/C [25]: 57.9%
- viability, T/C [26]: 40.4%
- viability, T/C [13]: 84.5%
- viability, T/C [14]: 80.5%
- viability, T/C [15]: 70.6%
- viability, T/C [16]: 68.9%
- viability, T/C [27]: 59.2%
- viability, T/C [28]: 36.8%
- viability, T/C [17]: 89.5%
- viability, T/C [18]: 73.5%
- viability, T/C [19]: 77.7%
- viability, T/C [20]: 60.9%
- viability, T/C [29]: 41.2%
- viability, T/C [30]: 37.4%

SMILES: Nc1ncn(C2CC(O)C(CO)S2)c(=O)n1 (stereo not given) + Cc1ccccc1N=Nc1ccc(NC(=O)c2ccnn2C)c(C)c1
- pIC50 (second compound 0.1 µM): < 6.52
- pIC50 (second compound 0.316 µM): < 6.52
- pIC50 (second compound 1 µM): < 6.52
- pIC50 (second compound 3.16 µM): < 6.52
- pIC50 (second compound 10 µM): < 6.52
- viability, T/C (second compound 0.1 µM, first compound 0.000949 µM): 120%
- viability, T/C (second compound 0.1 µM, first compound 0.003 µM): 102%
- viability, T/C [31]: 87.8%
- viability, T/C [32]: 102%
- viability, T/C [33]: 95.4%
- viability, T/C [34]: 79.5%
- viability, T/C (second compound 0.316 µM, first compound 0.000949 µM): 101%
- viability, T/C (second compound 0.316 µM, first compound 0.003 µM): 94.4%
- viability, T/C [35]: 83.6%
- viability, T/C [36]: 89.2%
- viability, T/C [37]: 89.9%
- viability, T/C [38]: 78.6%
- viability, T/C (second compound 1 µM, first compound 0.000949 µM): 87.9%
- viability, T/C (second compound 1 µM, first compound 0.003 µM): 96%
- viability, T/C [39]: 109%
- viability, T/C [40]: 94.6%
- viability, T/C [41]: 76.9%
- viability, T/C [42]: 99.9%
- viability, T/C (second compound 3.16 µM, first compound 0.000949 µM): 81.2%
- viability, T/C (second compound 3.16 µM, first compound 0.003 µM): 115%
- viability, T/C [43]: 116%
- viability, T/C [44]: 88.7%
- viability, T/C [45]: 85.4%
- viability, T/C [46]: 105%
- viability, T/C (second compound 10 µM, first compound 0.000949 µM): 103%
- viability, T/C (second compound 10 µM, first compound 0.003 µM): 95.3%
- viability, T/C [47]: 86%
- viability, T/C [48]: 92.7%
- viability, T/C [49]: 85%
- viability, T/C [50]: 77.2%

SMILES: O=C(C=Cn1cnc(-c2cc(C(F)(F)F)cc(C(F)(F)F)c2)n1)NNc1cnccn1 + Cc1ccccc1N=Nc1ccc(NC(=O)c2ccnn2C)c(C)c1
- pIC50 (second compound 0.1 µM): 5.69
- pIC50 (second compound 0.316 µM): 5.86
- pIC50 (second compound 1 µM): 5.61
- pIC50 (second compound 3.16 µM): < 5.52
- pIC50 (second compound 10 µM): < 5.52
- viability, T/C [31]: 87%
- viability, T/C [32]: 111%
- viability, T/C [33]: 86.1%
- viability, T/C [34]: 64.5%
- viability, T/C (second compound 0.1 µM, first compound 0.949 µM): 54.1%
- viability, T/C (second compound 0.1 µM, first compound 3 µM): 46.7%
- viability, T/C [35]: 78.9%
- viability, T/C [36]: 86.2%
- viability, T/C [37]: 84%
- viability, T/C [38]: 64.8%
- viability, T/C (second compound 0.316 µM, first compound 0.949 µM): 56%
- viability, T/C (second compound 0.316 µM, first compound 3 µM): 42.8%
- viability, T/C [39]: 111%
- viability, T/C [40]: 85.7%
- viability, T/C [41]: 79%
- viability, T/C [42]: 79.2%
- viability, T/C (second compound 1 µM, first compound 0.949 µM): 59.4%
- viability, T/C (second compound 1 µM, first compound 3 µM): 45.8%
- viability, T/C [43]: 109%
- viability, T/C [44]: 95.6%
- viability, T/C [45]: 99.7%
- viability, T/C [46]: 61.4%
- viability, T/C (second compound 3.16 µM, first compound 0.949 µM): 64.9%
- viability, T/C (second compound 3.16 µM, first compound 3 µM): 49%
- viability, T/C [47]: 94.8%
- viability, T/C [48]: 93%
- viability, T/C [49]: 107%
- viability, T/C [50]: 71.2%
- viability, T/C (second compound 10 µM, first compound 0.949 µM): 61.4%
- viability, T/C (second compound 10 µM, first compound 3 µM): 45.7%
